Experimental data: patent publication US10988477B2 (Merck Patent GmbH, priority 2018, dated 2021)

Experiments:
[1] = molecular target: GCN2 kinase (Homo sapiens, UniProt Q9P2K8); test: GCN2 enzyme inhibition assay (Transcreener ADP2 fluorescence polarization); type: biochemical; settings: 280 μM ATP
How it was run: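 Human GCN2 (4 nM) preincubated 10 min with compound (0–8 μM) and 200 μM (RS)7 peptide in Tris-HCl pH 7.5, NaCl, MgCl2, DTT. Reaction started with 280 μM ATP, run 1 h at 25 °C. ADP detected by Transcreener fluorescence polarization. IC50 and Ki(app) fitted by tight-binding algorithm.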

[2] = molecular target: intracellular GCN2 (phosphorylation of the GCN2 substrate eIF2α) (Homo sapiens, UniProt Q9P2K8); test: GCN2 cellular inhibition assay (AlphaScreen SureFire P-eIF2α Ser51, borrelidin-treated U2OS cells); type: cell-based; settings: biomarker assay, phosphorylated eIF2α Ser51 in borrelidin-treated U2OS cells
How it was run: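 Compound effect on GCN2 is gauged by eIF2α Ser51 phosphorylation in borrelidin-challenged U2OS cells (10 μM, 1 h). Top compound level is 40 μM final.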

[3] = compounds of Formula II, 4 nM GCN2 kinase
[4] = Enzyme activity for compounds of Formula IV, Ki(app), 25° C.

intracellular GCN2 (phosphorylation of the GCN2 substrate eIF2α), sequence (Q9P2K8 whole entry): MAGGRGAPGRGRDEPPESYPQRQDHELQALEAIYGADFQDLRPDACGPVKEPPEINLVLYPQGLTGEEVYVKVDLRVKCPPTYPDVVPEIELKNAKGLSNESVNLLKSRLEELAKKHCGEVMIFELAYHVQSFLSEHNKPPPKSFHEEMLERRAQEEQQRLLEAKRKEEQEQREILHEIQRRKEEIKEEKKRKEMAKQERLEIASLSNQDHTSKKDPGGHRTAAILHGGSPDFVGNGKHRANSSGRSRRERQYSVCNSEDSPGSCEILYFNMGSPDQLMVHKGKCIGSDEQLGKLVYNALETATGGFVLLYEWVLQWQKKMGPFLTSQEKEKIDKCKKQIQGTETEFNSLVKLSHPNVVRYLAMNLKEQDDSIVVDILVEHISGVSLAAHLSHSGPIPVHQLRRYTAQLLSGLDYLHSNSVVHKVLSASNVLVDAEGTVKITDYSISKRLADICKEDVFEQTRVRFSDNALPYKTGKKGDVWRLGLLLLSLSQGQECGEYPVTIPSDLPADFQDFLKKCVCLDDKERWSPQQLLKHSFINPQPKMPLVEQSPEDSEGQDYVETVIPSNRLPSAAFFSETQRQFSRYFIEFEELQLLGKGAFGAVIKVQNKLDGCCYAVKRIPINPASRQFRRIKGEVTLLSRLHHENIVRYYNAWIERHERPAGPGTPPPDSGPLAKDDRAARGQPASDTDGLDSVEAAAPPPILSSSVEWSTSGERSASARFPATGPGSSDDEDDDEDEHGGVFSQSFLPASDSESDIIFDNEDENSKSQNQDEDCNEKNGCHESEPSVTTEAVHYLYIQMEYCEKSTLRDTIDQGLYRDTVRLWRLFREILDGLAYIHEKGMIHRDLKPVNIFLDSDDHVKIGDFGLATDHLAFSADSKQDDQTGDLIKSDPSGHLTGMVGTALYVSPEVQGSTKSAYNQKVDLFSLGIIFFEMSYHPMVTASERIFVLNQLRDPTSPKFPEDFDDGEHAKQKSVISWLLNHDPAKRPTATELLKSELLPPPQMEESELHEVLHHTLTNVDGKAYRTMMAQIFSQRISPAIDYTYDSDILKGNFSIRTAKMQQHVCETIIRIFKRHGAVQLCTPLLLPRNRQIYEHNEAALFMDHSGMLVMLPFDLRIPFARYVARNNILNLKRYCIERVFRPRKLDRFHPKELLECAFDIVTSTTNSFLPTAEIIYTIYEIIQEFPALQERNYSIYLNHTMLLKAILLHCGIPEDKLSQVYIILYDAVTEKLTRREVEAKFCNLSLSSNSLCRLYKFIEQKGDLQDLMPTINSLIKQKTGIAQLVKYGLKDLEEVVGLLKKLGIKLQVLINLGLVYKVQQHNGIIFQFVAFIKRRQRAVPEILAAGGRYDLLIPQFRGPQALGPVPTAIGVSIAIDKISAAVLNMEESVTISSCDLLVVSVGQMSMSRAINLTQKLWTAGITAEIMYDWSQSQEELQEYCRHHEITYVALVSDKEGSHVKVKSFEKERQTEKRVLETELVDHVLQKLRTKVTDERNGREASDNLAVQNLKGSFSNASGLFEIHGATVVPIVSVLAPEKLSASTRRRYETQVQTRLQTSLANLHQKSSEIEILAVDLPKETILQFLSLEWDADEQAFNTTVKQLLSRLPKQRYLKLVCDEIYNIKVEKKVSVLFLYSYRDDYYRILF
GCN2 kinase, sequence (Q9P2K8 whole entry): as above

Row | Ki [1, 3] | IC50 ([2]; compounds of Formula II) | Ki [1, 4] | IC50 ([2]; compounds of Formula IV) | SMILES
1 | 10 to 1000 nM | 500 to 5000 nM | – | – | CC1CC(N=S(C)(C)=O)CN(c2cc(-c3cnc4ccc(C(F)F)nn34)ncn2)C1 (single isomer, unassigned) [II-540, ((1-(6-(6-(Difluoromethyl)imidazo[1,2-b]pyridazin-3-yl)pyrimidin-4-yl)-5-methylpiperidin-3-yl)imino)dimethyl-λ^6-sulfanone]
2 | < 10 nM | < 500 nM | – | – | C[C@@H]1CC(N=S(C)(C)=O)CN(c2cc(-c3cnc4ccc(C(F)F)nn34)ncn2)C1 (single isomer, unassigned) [II-541]
3 | < 10 nM | < 500 nM | – | – | CCN1CCN(c2cc(-c3cnc4ccc(C(F)F)nn34)ncn2)C(C)C1CNS(C)(=O)=O (single isomer, unassigned) [II-542, N-((4-(6-(6-(Difluoromethyl)imidazo[1,2-b]pyridazin-3-yl)pyrimidin-4-yl)-1-ethyl-3-methylpiperazin-2-yl)methyl)methanesulfonamide]
4 | 10 to 1000 nM | 500 to 5000 nM | – | – | CCN1CCN(c2cc(-c3cnc4ccc(C(F)F)nn34)ncn2)C(C)C1CNS(C)(=O)=O (single isomer, unassigned) [II-543, N-((4-(6-(6-(difluoromethyl)imidazo[1,2-b]pyridazin-3-yl)pyrimidin-4-yl)-1-ethyl-3-methylpiperazin-2-yl)methyl)methanesulfonamide]
5 | 10 to 1000 nM | 500 to 5000 nM | – | – | CC1CC(CNS(C)(=O)=O)C(C)N(c2cc(-c3cnc4ccc(C(F)F)nn34)ncn2)C1 (single isomer, unassigned) [II-545, N-((1-(6-(6-(Difluoromethyl)imidazo[1,2-b]pyridazin-3-yl)pyrimidin-4-yl)-2,5-dimethylpiperidin-3-yl)methyl)methanesulfonamide]
6 | < 10 nM | < 500 nM | – | – | CC1CC(CNS(C)(=O)=O)C(C)N(c2cc(-c3cnc4ccc(C(F)F)nn34)ncn2)C1 (single isomer, unassigned) [II-546, N-((1-(6-(6-(Difluoromethyl)imidazo[1,2-b]pyridazin-3-yl)pyrimidin-4-yl)-2,5-dimethylpiperidin-3-yl)methyl)methanesulfonamide]
7 | < 10 nM | < 500 nM | – | – | C[C@H]1[C@@H](N=S(C)(C)=O)CCCN1c1cc(-c2cnc3ccc(C(F)F)nn23)ncn1 (single isomer, unassigned) [II-593]
8 | < 10 nM | < 500 nM | – | – | C[C@@H]1C[C@H](N=S(C)(C)=O)[C@H](C)N(c2cc(-c3cnc4ccc(C(F)F)nn34)ncn2)C1 (single isomer, unassigned) [II-631]
9 | < 10 nM | < 500 nM | – | – | CCC1CC(N=S(C)(C)=O)CN(c2cc(-c3cnc4ccc(C(F)F)nn34)ncn2)C1 (single isomer, unassigned) [II-650, ((1-(6-(6-(Difluoromethyl)imidazo[1,2-b]pyridazin-3-yl)pyrimidin-4-yl)-5-ethylpiperidin-3-yl)imino)dimethyl-λ^6-sulfanone]
10 | 10 to 1000 nM | 500 to 5000 nM | – | – | CC1CN(c2cc(-c3cnc4ccc(C(F)F)nn34)ncn2)C(C)C(c2cn[nH]c2)N1 (single isomer, unassigned) [II-652, 6-(Difluoromethyl)-3-(6-(2,5-dimethyl-3-(1H-pyrazol-4-yl)piperazin-1-yl)pyrimidin-4-yl)imidazo[1,2-b]pyridazine]
11 | < 10 nM | < 500 nM | – | – | CC1CC(C(N)=O)C(C)N(c2cc(-c3cnc4ccc(C(F)(F)F)nn34)ncn2)C1 (single isomer, unassigned) [II-717, 2,5-Dimethyl-1-[6-[6-(trifluoromethyl)imidazo[1,2-b]pyridazin-3-yl]pyrimidin-4-yl]piperidine-3-carboxamide]
12 | 10 to 1000 nM | 500 to 5000 nM | – | – | CC1CC(N=S(C)(C)=O)CN(c2cc(-c3cnc4ccc(C(F)F)nn34)c(F)cn2)C1 (single isomer, unassigned) [II-723, ((1-(4-(6-(Difluoromethyl)imidazo[1,2-b]pyridazin-3-yl)-5-fluoropyridin-2-yl)-5-methylpiperidin-3-yl)imino)dimethyl-λ^6-sulfanone]
13 | – | – | 10 to 100 nM | 500 to 5000 nM | FC(F)(F)c1cn2c(-c3nccc(N4CCOC(c5cn[nH]c5)C4)n3)cnc2cn1 (single isomer, unassigned) [IV-7, 2-(1H-Pyrazol-4-yl)-4-(2-(6-(trifluoromethyl)imidazo[1,2-a]pyrazin-3-yl)pyrimidin-4-yl)morpholine]
14 | – | – | < 10 nM | 500 to 5000 nM | FC(F)(F)c1cn2c(-c3nccc(N4CCOC(c5cn[nH]c5)C4)n3)cnc2cn1 (single isomer, unassigned) [IV-8, 2-(1H-Pyrazol-4-yl)-4-(2-(6-(trifluoromethyl)imidazo[1,2-a]pyrazin-3-yl)pyrimidin-4-yl)morpholine]
15 | – | – | < 10 nM | < 500 nM | CC1C(c2cn[nH]c2)OCCN1c1ccnc(-c2cnc3cnc(Cl)cn23)n1 (single isomer, unassigned) [IV-9, 4-(2-(6-Chloroimidazo[1,2-a]pyrazin-3-yl)pyrimidin-4-yl)-3-methyl-2-(1H-pyrazol-4-yl)morpholine]
16 | – | – | 10 to 100 nM | < 500 nM | CC1CN(c2ccnc(-c3cnc4cnc(C(F)(F)F)cn34)n2)CC(c2cn[nH]c2)O1 (single isomer, unassigned) [IV-13, 2-Methyl-6-(1H-pyrazol-4-yl)-4-(2-(6-(trifluoromethyl)imidazo[1,2-a]pyrazin-3-yl)pyrimidin-4-yl)morpholine]
17 | – | – | < 10 nM | < 500 nM | CC1CN(c2ccnc(-c3cnc4cnc(C(F)(F)F)cn34)n2)CC(c2cn[nH]c2)O1 (single isomer, unassigned) [IV-14, 2-Methyl-6-(1H-pyrazol-4-yl)-4-(2-(6-(trifluoromethyl)imidazo[1,2-a]pyrazin-3-yl)pyrimidin-4-yl)morpholine]
18 | – | – | 10 to 100 nM | 500 to 5000 nM | CC1CN(c2ccnc(-c3cnc4cnc(C(F)(F)F)cn34)n2)CC(c2cn[nH]c2)O1 (single isomer, unassigned) [IV-15, 2-Methyl-6-(1H-pyrazol-4-yl)-4-(2-(6-(trifluoromethyl)imidazo[1,2-a]pyrazin-3-yl)pyrimidin-4-yl)morpholine]
19 | – | – | 10 to 100 nM | 500 to 5000 nM | CC1CN(c2ccnc(-c3cnc4cnc(C(F)(F)F)cn34)n2)CC(c2cn[nH]c2)O1 (single isomer, unassigned) [IV-16, 2-Methyl-6-(1H-pyrazol-4-yl)-4-(2-(6-(trifluoromethyl)imidazo[1,2-a]pyrazin-3-yl)pyrimidin-4-yl)morpholine]
20 | – | – | 10 to 100 nM | 500 to 5000 nM | CC1CN(c2ccnc(-c3cnc4cnc(C#N)cn34)n2)CC(c2cn[nH]c2)O1 (single isomer, unassigned) [IV-191, 3-(4-(2-Methyl-6-(1H-pyrazol-4-yl)morpholino)pyrimidin-2-yl)imidazo[1,2-a]pyrazine-6-carbonitrile]
21 | – | – | < 10 nM | 500 to 5000 nM | CC1CN(c2ccnc(-c3cnc4cnc(Cl)cn34)n2)CC(c2cn[nH]c2)O1 (single isomer, unassigned) [IV-192, 4-(2-(6-Chloroimidazo[1,2-a]pyrazin-3-yl)pyrimidin-4-yl)-2-methyl-6-(1H-pyrazol-4-yl)morpholine]
22 | – | – | 10 to 100 nM | 500 to 5000 nM | CC1CN(c2nccc(-c3cnc4cnc(C(F)(F)F)cn34)n2)CC(c2cn[nH]c2)O1 (single isomer, unassigned) [IV-199, 2-Methyl-6-(1H-pyrazol-4-yl)-4-(4-(6-(trifluoromethyl)imidazo[1,2-a]pyrazin-3-yl)pyrimidin-2-yl)morpholine]
